Measurements: ChEMBL document CHEMBL1201861, “Genomics of Drug Sensitity in Cancer screening data, Wellcome Trust Sanger Institute”

Tests used:
Assay in all cases: cells
[1] = system: CW-2; format: functional, cell-based, Homo sapiens; details: Homo sapiens, CW-2;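 further: growth inhibition of CW-2 cells, read out by a cell viability assay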
Description: SANGER: Inhibition of human CW-2 cell growth in a cell viability assay.

[2] = system: D-392MG; format: functional, cell-based, Homo sapiens; details: Homo sapiens, D-392MG
[3] = system: DBTRG-05MG; format: functional, cell-based, Homo sapiens; details: Homo sapiens, DBTRG-05MG;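 further: cell viability assay measuring growth inhibition of human DBTRG-05MG cells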
Description: SANGER: Inhibition of human DBTRG-05MG cell growth in a cell viability assay.

[4] = system: DK-MG; format: functional, cell-based, Homo sapiens; details: Homo sapiens, DK-MG;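 further: growth inhibition of DK-MG cells, read out with a cell viability assay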
Description: SANGER: Inhibition of human DK-MG cell growth in a cell viability assay.

[5] = system: DMS-114; format: functional, cell-based, Homo sapiens; details: Homo sapiens, DMS-114
[6] = system: Daoy; format: functional, cell-based, Homo sapiens; details: Homo sapiens, Daoy;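 further: daoy cell growth inhibition, read out as cell viability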
Description: SANGER: Inhibition of human Daoy cell growth in a cell viability assay.

[7] = system: EFM-19; format: functional, cell-based, Homo sapiens; details: Homo sapiens, EFM-19;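 further: growth inhibition of human EFM-19 cells, measured in a cell viability assay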
Description: SANGER: Inhibition of human EFM-19 cell growth in a cell viability assay.

[8] = system: EGI-1; format: functional, cell-based, Homo sapiens; details: Homo sapiens, EGI-1;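 further: cell viability readout used to gauge growth inhibition of EGI-1 cells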
Description: SANGER: Inhibition of human EGI-1 cell growth in a cell viability assay.

[9] = system: EKVX; format: functional, cell-based, Homo sapiens; details: Homo sapiens, EKVX;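 further: growth inhibition of human EKVX cells, read out with a cell viability assay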
Description: SANGER: Inhibition of human EKVX cell growth in a cell viability assay.

[10] = system: ESS-1; format: functional, cell-based, Homo sapiens; details: Homo sapiens, ESS-1;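 further: growth inhibition of human ESS-1 cells, read out by a cell viability assay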
Description: SANGER: Inhibition of human ESS-1 cell growth in a cell viability assay.

[11] = system: HCC1937; format: functional, cell-based, Homo sapiens; details: Homo sapiens, HCC1937;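 further: growth inhibition measured with a cell viability read-out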
Description: SANGER: Inhibition of human HCC1937 cell growth in a cell viability assay.

[12] = system: HGC-27; format: functional, cell-based, Homo sapiens; details: Homo sapiens, HGC-27;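 further: growth inhibition of human HGC-27 cells, read out in a cell viability assay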
Description: SANGER: Inhibition of human HGC-27 cell growth in a cell viability assay.

[13] = system: HLE; format: functional, cell-based, Homo sapiens; details: Homo sapiens, HLE;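 further: growth inhibition of human HLE cells, read out by a cell viability assay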
Description: SANGER: Inhibition of human HLE cell growth in a cell viability assay.

[14] = system: HT-1080; format: functional, cell-based, Homo sapiens; details: Homo sapiens, HT-1080
Description: SANGER: Inhibition of human HT-1080 cell growth in a cell viability assay.

[15] = system: IA-LM; format: functional, cell-based, Homo sapiens; details: Homo sapiens, IA-LM;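 further: cell viability assay measuring growth inhibition of human IA-LM cells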
Description: SANGER: Inhibition of human IA-LM cell growth in a cell viability assay.

[16] = system: IST-MES1; format: functional, cell-based, Homo sapiens; details: Homo sapiens, IST-MES1;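 further: growth inhibition of IST-MES1 cells, measured with a cell viability assay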
Description: SANGER: Inhibition of human IST-MES1 cell growth in a cell viability assay.

[17] = system: JEG-3; format: functional, cell-based, Homo sapiens; details: Homo sapiens, JEG-3;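 further: growth inhibition of human JEG-3 cells, read out with a cell viability assay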
Description: SANGER: Inhibition of human JEG-3 cell growth in a cell viability assay.

[18] = system: K5; format: functional, cell-based, Homo sapiens; details: Homo sapiens, K5
Description: SANGER: Inhibition of human K5 cell growth in a cell viability assay.

[19] = system: KG-1; format: functional, cell-based; details: Homo sapiens;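 further: growth inhibition of KG-1 cells, read out by a cell viability assay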
Description: SANGER: Inhibition of human KG-1 cell growth in a cell viability assay.

[20] = system: KM-H2; format: functional, cell-based; details: Homo sapiens;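 further: growth inhibition of KM-H2 cells, read out by a cell viability assay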
Description: SANGER: Inhibition of human KM-H2 cell growth in a cell viability assay.

[21] = system: KP-4; format: functional, cell-based, Homo sapiens; details: Homo sapiens, KP-4; read-out: IC50;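 further: human KP-4 cells, with growth inhibition read out through a cell viability assay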
Description: SANGER: Inhibition of human KP-4 cell growth in a cell viability assay.

[22] = system: KYSE-140; format: functional, cell-based, Homo sapiens; details: Homo sapiens, KYSE-140;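 further: cell viability assay measuring growth inhibition in human KYSE-140 cells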
Description: SANGER: Inhibition of human KYSE-140 cell growth in a cell viability assay.

[23] = system: L-428; format: functional, cell-based; details: Homo sapiens
Description: SANGER: Inhibition of human L-428 cell growth in a cell viability assay.

[24] = system: LB2241-RCC; format: functional, cell-based, Homo sapiens; details: Homo sapiens, LB2241-RCC;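 further: cell viability assay measuring how strongly the cultured human renal carcinoma line is prevented from growing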
Description: SANGER: Inhibition of human LB2241-RCC cell growth in a cell viability assay.

[25] = system: LB373-MEL-D; format: functional, cell-based, Homo sapiens; details: Homo sapiens, LB373-MEL-D;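 further: growth inhibition of the cell line, read out in a cell viability assay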
Description: SANGER: Inhibition of human LB373-MEL-D cell growth in a cell viability assay.

[26] = system: LB996-RCC; format: functional, cell-based; details: Homo sapiens
Description: SANGER: Inhibition of human LB996-RCC cell growth in a cell viability assay.

[27] = system: LS-411N; format: functional, cell-based, Homo sapiens; details: Homo sapiens, LS-411N
[28] = system: MDA-MB-361; format: functional, cell-based, Homo sapiens; details: Homo sapiens, MDA-MB-361
[29] = system: MEL-HO; format: functional, cell-based, Homo sapiens; details: Homo sapiens, MEL-HO
Description: SANGER: Inhibition of human MEL-HO cell growth in a cell viability assay.

[30] = system: MFH-ino; format: functional, cell-based; details: Homo sapiens;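 further: growth inhibition of human MFH-ino cells, read out by a cell viability assay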
Description: SANGER: Inhibition of human MFH-ino cell growth in a cell viability assay.

[31] = system: MKN-45; format: functional, cell-based, Homo sapiens; details: Homo sapiens, MKN-45;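 further: growth inhibition of human MKN-45 cells, measured with a cell viability assay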
Description: SANGER: Inhibition of human MKN45 cell growth in a cell viability assay.

[32] = system: MMAC-SF; format: functional, cell-based, Homo sapiens; details: Homo sapiens, MMAC-SF;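 further: growth inhibition of human MMAC-SF cells, read out with a cell viability assay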
Description: SANGER: Inhibition of human MMAC-SF cell growth in a cell viability assay.

[33] = system: Mo; format: functional, cell-based; details: Homo sapiens
Description: SANGER: Inhibition of human Mo-T cell growth in a cell viability assay.

[34] = system: NCI-H1304; format: functional, cell-based; details: Homo sapiens;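 further: growth inhibition of the cancer cell line, measured in a cell viability assay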
Description: SANGER: Inhibition of human NCI-H1304 cell growth in a cell viability assay.

[35] = system: NCI-H1993; format: functional, cell-based, Homo sapiens; details: Homo sapiens, NCI-H1993;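 further: growth inhibition of the cancer cell line, assessed with a cell viability assay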
Description: SANGER: Inhibition of human NCI-H1993 cell growth in a cell viability assay.

[36] = system: NCI-H2405; format: functional, cell-based, Homo sapiens; details: Homo sapiens, NCI-H2405;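 further: growth inhibition of the human cell line, read out with a cell viability assay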
Description: SANGER: Inhibition of human NCI-H2405 cell growth in a cell viability assay.

[37] = system: NCI-H446; format: functional, cell-based; details: Homo sapiens;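 further: growth inhibition of NCI-H446 cells determined by a cell viability assay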
Description: SANGER: Inhibition of human NCI-H446 cell growth in a cell viability assay.

[38] = system: NKM-1; format: functional, cell-based; details: Homo sapiens;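 further: growth inhibition of NKM-1 cells, read out with a cell viability assay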
Description: SANGER: Inhibition of human NKM-1 cell growth in a cell viability assay.

[39] = system: NUGC-3; format: functional, cell-based, Homo sapiens; details: Homo sapiens, NUGC-3;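 further: growth inhibition of human NUGC-3 cells, read out with a cell viability assay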
Description: SANGER: Inhibition of human NUGC-3 cell growth in a cell viability assay.

[40] = system: OE33; format: functional, cell-based, Homo sapiens; details: Homo sapiens, OE33;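 further: growth inhibition of human OE33 cells, measured by a cell viability assay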
Description: SANGER: Inhibition of human OE33 cell growth in a cell viability assay.

[41] = system: RCC10RGB; format: functional, cell-based, Homo sapiens; details: Homo sapiens, RCC10RGB;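 further: growth inhibition of human RCC10RGB cells, read out by a cell viability assay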
Description: SANGER: Inhibition of human RCC10RGB cell growth in a cell viability assay.

[42] = system: RCM-1; format: functional, cell-based, Homo sapiens; details: Homo sapiens, RCM-1;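 further: growth inhibition of the RCM-1 line, determined with a cell viability readout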
Description: SANGER: Inhibition of human RCM-1 cell growth in a cell viability assay.

[43] = system: RD; format: functional, cell-based, Homo sapiens; details: Homo sapiens, RD
Description: SANGER: Inhibition of human RD cell growth in a cell viability assay.

[44] = system: RERF-LC-MS; format: functional, cell-based, Homo sapiens; details: Homo sapiens, RERF-LC-MS;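 further: growth inhibition of human RERF-LC-MS cells, read out by a cell viability assay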
Description: SANGER: Inhibition of human RERF-LC-MS cell growth in a cell viability assay.

[45] = system: SNB-75; format: functional, cell-based, Homo sapiens; details: Homo sapiens, SNB-75;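 further: cell viability assay measuring growth inhibition of human SNB-75 cells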
Description: SANGER: Inhibition of human SNB75 cell growth in a cell viability assay.

[46] = system: SW1088; format: functional, cell-based, Homo sapiens; details: Homo sapiens, SW1088;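 further: growth inhibition of human SW1088 cells, read out by a cell viability assay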
Description: SANGER: Inhibition of human SW1088 cell growth in a cell viability assay.

[47] = system: SW13; format: functional, cell-based, Homo sapiens; details: Homo sapiens, SW13;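 further: IC50 is inhibition of SW13 cell growth, read out with a cell viability assay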
Description: SANGER: Inhibition of human SW13 cell growth in a cell viability assay.

[48] = system: SW48; format: functional, cell-based, Homo sapiens; details: Homo sapiens, SW48;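 further: growth inhibition of SW48 cells, read out with a cell viability assay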
Description: SANGER: Inhibition of human SW48 cell growth in a cell viability assay.

[49] = system: ATN-1; format: functional, cell-based; details: Homo sapiens;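 further: growth inhibition of human ATN-1 cells, read out with a cell viability assay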
Description: SANGER: Inhibition of human ATN-1 cell growth in a cell viability assay.

[50] = system: BFTC-909; format: functional, cell-based, Homo sapiens; details: Homo sapiens, BFTC-909
Description: SANGER: Inhibition of human BFTC-909 cell growth in a cell viability assay.

[51] = system: C32; format: functional, cell-based, Homo sapiens; details: Homo sapiens, C32;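 further: cell viability assay, with IC50 reflecting inhibition of C32 cell growth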
Description: SANGER: Inhibition of human C32 cell growth in a cell viability assay.

Which IC50 [1] does the source give for `CCOc1nc(NC(=O)Cc2cc(OC)ccc2OC)cc(N)c1C#N` here?
Its IC50 is greater than 10 µM.

And the IC50 [2]?
Its IC50 is greater than 10 µM.

And the IC50 [3]?
Its IC50 is greater than 10 µM.

And the IC50 [4]?
Its IC50 is greater than 10 µM.

And the IC50 [5]?
Its IC50 is greater than 10 µM.

And the IC50 [6]?
The IC50 was greater than 10 µM.

What about the IC50 [7] of the same compound?
Its IC50 is greater than 10 µM.

And the IC50 [8]?
Its IC50 is greater than 10 µM.

And the IC50 [9]?
Its IC50 is greater than 10 µM.

What about the IC50 [10] of the same compound?
Its IC50 is greater than 10 µM.

What about the IC50 [11] of the same compound?
The IC50 was greater than 10 µM.

What about the IC50 [12] of the same compound?
Its IC50 is greater than 10 µM.

And the IC50 [13]?
The IC50 was greater than 10 µM.

And the IC50 [14]?
Its IC50 is greater than 10 µM.

And the IC50 [15]?
Its IC50 is greater than 10 µM.

And the IC50 [16]?
Its IC50 is greater than 10 µM.

What about the IC50 [17] of the same compound?
Its IC50 is greater than 10 µM.

What about the IC50 [18] of the same compound?
Its IC50 is greater than 10 µM.

What about the IC50 [19] of the same compound?
Its IC50 is greater than 10 µM.

And the IC50 [20]?
The IC50 was greater than 10 µM.

What about the IC50 [21] of the same compound?
Its IC50 is greater than 10 µM.

What about the IC50 [22] of the same compound?
The IC50 was greater than 10 µM.

What about the IC50 [23] of the same compound?
Its IC50 is greater than 10 µM.

What about the IC50 [24] of the same compound?
Its IC50 is 6.58 µM.

What about the IC50 [25] of the same compound?
The IC50 was greater than 10 µM.

What about the IC50 [26] of the same compound?
The IC50 was greater than 10 µM.

What about the IC50 [27] of the same compound?
Its IC50 is greater than 10 µM.

What about the IC50 [28] of the same compound?
Its IC50 is greater than 10 µM.

And the IC50 [29]?
Its IC50 is greater than 10 µM.

What about the IC50 [30] of the same compound?
The IC50 was greater than 10 µM.

And the IC50 [31]?
The IC50 was greater than 10 µM.

And the IC50 [32]?
Its IC50 is greater than 10 µM.

What about the IC50 [33] of the same compound?
The IC50 was greater than 10 µM.

And the IC50 [34]?
Its IC50 is greater than 10 µM.

And the IC50 [35]?
The IC50 was greater than 10 µM.

What about the IC50 [36] of the same compound?
Its IC50 is greater than 10 µM.

And the IC50 [37]?
The IC50 was greater than 10 µM.

And the IC50 [38]?
Its IC50 is greater than 10 µM.

And the IC50 [39]?
Its IC50 is greater than 10 µM.

And the IC50 [40]?
Its IC50 is greater than 10 µM.

What about the IC50 [41] of the same compound?
The IC50 was greater than 10 µM.

What about the IC50 [42] of the same compound?
The IC50 was greater than 10 µM.

And the IC50 [43]?
Its IC50 is greater than 10 µM.

What about the IC50 [44] of the same compound?
The IC50 was greater than 10 µM.

What about the IC50 [45] of the same compound?
Its IC50 is greater than 10 µM.

And the IC50 [46]?
The IC50 was greater than 10 µM.

And the IC50 [47]?
Its IC50 is greater than 10 µM.

What about the IC50 [48] of the same compound?
The IC50 was greater than 10 µM.

What about the IC50 [49] of the same compound?
Its IC50 is greater than 10 µM.

And the IC50 [50]?
Its IC50 is greater than 10 µM.

And the IC50 [51]?
Its IC50 is greater than 10 µM.

What does the source list for `CC(=O)O[C@@H]1[C@@H](OC(C)=O)[C@@H](O)[C@H](Oc2c(-c3ccc(O)cc3)oc3cc(O)cc(O)c3c2=O)O[C@H]1C`?
IC50 [1]: > 10 µM; IC50 [2]: > 10 µM; IC50 [3]: > 10 µM; IC50 [4]: > 10 µM; IC50 [5]: > 10 µM; IC50 [6]: > 10 µM; IC50 [7]: > 10 µM; IC50 [8]: > 10 µM; IC50 [9]: > 10 µM; IC50 [10]: > 10 µM; IC50 [11]: > 10 µM; IC50 [12]: > 10 µM; IC50 [13]: > 10 µM; IC50 [14]: > 10 µM; IC50 [15]: > 10 µM; IC50 [16]: > 10 µM; IC50 [17]: > 10 µM; IC50 [18]: > 10 µM; IC50 [19]: > 10 µM; IC50 [20]: > 10 µM; IC50 [21]: > 10 µM; IC50 [22]: > 10 µM; IC50 [23]: > 10 µM; IC50 [24]: > 10 µM; IC50 [25]: > 10 µM; IC50 [26]: > 10 µM; IC50 [27]: > 10 µM; IC50 [28]: > 10 µM; IC50 [29]: > 10 µM; IC50 [30]: > 10 µM; IC50 [31]: > 10 µM; IC50 [32]: > 10 µM; IC50 [33]: > 10 µM; IC50 [34]: > 10 µM; IC50 [35]: > 10 µM; IC50 [36]: > 10 µM; IC50 [37]: > 10 µM; IC50 [38]: > 10 µM; IC50 [39]: > 10 µM; IC50 [40]: > 10 µM; IC50 [41]: > 10 µM; IC50 [42]: > 10 µM; IC50 [43]: > 10 µM; IC50 [44]: > 10 µM; IC50 [45]: > 10 µM; IC50 [46]: > 10 µM; IC50 [47]: > 10 µM; IC50 [48]: > 10 µM; IC50 [49]: > 10 µM; IC50 [50]: > 10 µM; IC50 [51]: > 10 µM
